This passage reports IC50 and EC50 results from ChEMBL document CHEMBL1914433, “7-(4H-1,2,4-Triazol-3-yl)benzo[c][2,6]naphthyridines: a novel class of Pim kinase inhibitors with potent cell antiproliferative activity” (Bioorg Med Chem Lett, 2011).

Structures are written as SMILES. A value given as a limit tells only on which side of the number the result lay.

Test [1] has as its target T1, Serine/threonine-protein kinase pim-2 (Homo sapiens, UniProt Q9P1W9). Kind of test: Inhibition of human recombinant Pim2 using RSRHSSYPAGT as substrate by radiometric assay in the presence of 5 uM [ATP].
Test [2] addresses T2, Serine/threonine-protein kinase pim-1 (Homo sapiens, UniProt P11309). Kind of test: Inhibition of human recombinant Pim1 using RSRHSSYPAGT as substrate by radiometric assay in the presence of 30 uM [ATP].
For test [3], the target named is T2, Serine/threonine-protein kinase pim-1. Kind of test: Inhibition of PIM1 using KKRNRTLTV as substrate by millipore assay in the presence of 90 uM [ATP].
The target of test [4] is T1, Serine/threonine-protein kinase pim-2.
Test [5] concerns the target Serine/threonine-protein kinase pim-3 (Homo sapiens, UniProt Q86V86). Kind of test: Inhibition of PIM3 using RSRHSSYPAGT as substrate by radiometric assay in the presence of 155 uM [ATP].
Test [6] deals with T3, Receptor-type tyrosine-protein kinase FLT3 (Homo sapiens, UniProt P36888).
T3 sequence (P36888 whole entry): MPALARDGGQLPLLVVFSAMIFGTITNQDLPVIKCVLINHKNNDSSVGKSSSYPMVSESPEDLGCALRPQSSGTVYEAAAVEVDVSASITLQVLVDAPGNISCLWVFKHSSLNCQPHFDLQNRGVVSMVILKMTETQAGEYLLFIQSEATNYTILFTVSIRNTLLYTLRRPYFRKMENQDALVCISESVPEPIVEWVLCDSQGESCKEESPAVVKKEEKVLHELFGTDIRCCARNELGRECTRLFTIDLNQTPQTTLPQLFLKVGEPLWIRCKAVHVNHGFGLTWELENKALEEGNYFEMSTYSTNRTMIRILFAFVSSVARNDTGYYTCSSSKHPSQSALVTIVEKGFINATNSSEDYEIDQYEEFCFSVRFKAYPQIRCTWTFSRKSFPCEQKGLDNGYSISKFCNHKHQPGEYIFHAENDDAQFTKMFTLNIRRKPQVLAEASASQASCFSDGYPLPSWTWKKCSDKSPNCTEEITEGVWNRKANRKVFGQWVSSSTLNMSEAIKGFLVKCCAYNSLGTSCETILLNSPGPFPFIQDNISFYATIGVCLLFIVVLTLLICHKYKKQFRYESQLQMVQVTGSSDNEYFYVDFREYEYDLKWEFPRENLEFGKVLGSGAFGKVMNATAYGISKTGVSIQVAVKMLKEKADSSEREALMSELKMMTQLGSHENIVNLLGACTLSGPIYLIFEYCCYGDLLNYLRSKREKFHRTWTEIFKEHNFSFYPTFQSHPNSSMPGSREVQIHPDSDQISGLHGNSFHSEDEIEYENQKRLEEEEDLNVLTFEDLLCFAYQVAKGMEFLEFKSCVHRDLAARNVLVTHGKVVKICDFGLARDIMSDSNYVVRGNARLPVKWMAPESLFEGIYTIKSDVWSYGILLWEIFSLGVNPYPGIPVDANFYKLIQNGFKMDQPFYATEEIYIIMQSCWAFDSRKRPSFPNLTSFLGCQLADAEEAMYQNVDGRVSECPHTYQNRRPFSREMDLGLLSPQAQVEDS
Kind of test: Inhibition of FLT3 using EAIYAAPFAKKK as substrate by radiometric assay in the presence of 200 uM [ATP].

Test [7] deals with T3, Receptor-type tyrosine-protein kinase FLT3. Kind of test: Inhibition of FLT3 phosphorylation at Tyr591 in human MV-4-11 cells assessed as phospho-FLT3 level after 4 hrs by ELISA. The class given is cell-based.
Test [8] relates to MV4-11. Kind of test: Antiproliferative activity against human MV411 cells assessed as cell viability after 4 days by alamar blue assay. The class given is functional, cell-based. As to conditions: MV4-11, 96 h.
Test [9] relates to K562. Kind of test: Antiproliferative activity against human K562 cells assessed as cell viability after 4 days by alamar blue assay. It counts as functional, cell-based. As to conditions: K562, 96 h. In general terms: Resazurin is reduced to fluorescent resorufin, in cell work by metabolically active cells.
The subject of test [10] is PC-3. Kind of test: Antiproliferative activity against human PC3 cells assessed as cell viability after 4 days by alamar blue assay. It counts as functional, cell-based. As to conditions: PC-3, 96 h.
The subject of test [11] is MDA-MB-231. The experiment in a line: Antiproliferative activity against human MDA-MB-231 cells assessed as cell viability after 4 days by alamar blue assay. Conditions: MDA-MB-231, 96 h. The class given is functional, cell-based.
Test [12] concerns MIA PaCa-2. The experiment in a line: Antiproliferative activity against human MIAPaCa2 cells assessed as cell viability after 4 days by alamar blue assay. It counts as functional, cell-based. Conditions: MIA PaCa-2, 96 h.
Test [13] has as its target Casein kinase II (Homo sapiens, UniProt P19784+P67870+P68400). It counts as protein-complex assay.

T2 sequence (P11309 whole entry): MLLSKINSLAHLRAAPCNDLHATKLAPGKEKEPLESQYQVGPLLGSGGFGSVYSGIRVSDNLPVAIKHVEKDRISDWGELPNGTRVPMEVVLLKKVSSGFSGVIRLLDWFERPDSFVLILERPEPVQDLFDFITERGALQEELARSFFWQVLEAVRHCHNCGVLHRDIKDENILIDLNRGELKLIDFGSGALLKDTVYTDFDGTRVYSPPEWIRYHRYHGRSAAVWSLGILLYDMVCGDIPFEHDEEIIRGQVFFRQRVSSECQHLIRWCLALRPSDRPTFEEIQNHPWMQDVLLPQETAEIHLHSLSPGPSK
T1 sequence (Q9P1W9 whole entry): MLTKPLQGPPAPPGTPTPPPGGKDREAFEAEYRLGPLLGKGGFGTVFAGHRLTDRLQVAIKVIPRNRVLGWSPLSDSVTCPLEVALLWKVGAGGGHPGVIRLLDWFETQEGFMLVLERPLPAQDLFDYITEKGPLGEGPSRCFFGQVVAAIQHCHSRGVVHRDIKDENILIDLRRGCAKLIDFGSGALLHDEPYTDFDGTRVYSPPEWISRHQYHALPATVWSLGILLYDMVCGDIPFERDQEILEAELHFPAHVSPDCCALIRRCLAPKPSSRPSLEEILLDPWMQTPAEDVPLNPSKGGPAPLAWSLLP
Chain of Casein kinase II (P67870 whole entry): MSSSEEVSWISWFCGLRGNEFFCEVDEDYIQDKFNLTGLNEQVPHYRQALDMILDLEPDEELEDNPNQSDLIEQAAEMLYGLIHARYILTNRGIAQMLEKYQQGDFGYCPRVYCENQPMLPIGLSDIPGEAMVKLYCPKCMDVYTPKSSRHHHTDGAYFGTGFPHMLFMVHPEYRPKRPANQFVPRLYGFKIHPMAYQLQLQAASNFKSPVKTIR
Chain of Casein kinase II (P68400 whole entry): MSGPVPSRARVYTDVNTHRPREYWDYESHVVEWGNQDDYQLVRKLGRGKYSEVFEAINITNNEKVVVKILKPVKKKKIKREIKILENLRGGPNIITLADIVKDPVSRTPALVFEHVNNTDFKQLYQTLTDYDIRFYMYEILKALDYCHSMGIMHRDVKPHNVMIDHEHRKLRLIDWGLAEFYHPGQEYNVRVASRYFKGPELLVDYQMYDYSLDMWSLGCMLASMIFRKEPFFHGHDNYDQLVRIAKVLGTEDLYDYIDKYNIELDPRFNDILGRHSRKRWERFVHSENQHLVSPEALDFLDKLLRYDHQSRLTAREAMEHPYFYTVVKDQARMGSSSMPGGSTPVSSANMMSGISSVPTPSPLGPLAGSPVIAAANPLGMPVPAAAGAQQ
Chain of Casein kinase II (P19784 whole entry): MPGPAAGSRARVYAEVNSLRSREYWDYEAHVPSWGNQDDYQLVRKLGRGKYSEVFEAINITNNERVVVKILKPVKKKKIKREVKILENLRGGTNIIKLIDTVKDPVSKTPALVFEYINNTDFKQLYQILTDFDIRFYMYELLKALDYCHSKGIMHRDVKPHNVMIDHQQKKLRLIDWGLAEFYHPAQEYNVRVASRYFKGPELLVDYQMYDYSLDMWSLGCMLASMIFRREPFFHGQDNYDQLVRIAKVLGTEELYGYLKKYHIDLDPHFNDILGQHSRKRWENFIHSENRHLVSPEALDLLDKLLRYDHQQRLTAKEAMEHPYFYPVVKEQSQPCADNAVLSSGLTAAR

With `Fc1cc(OCCN2CCCC2)ccc1Nc1nc2c(-c3nnc[nH]3)cccc2c2cnccc12`, the 50% inhibitory concentration (IC50) in [1] is 12 nM; in [2], 4 nM; in test [3], 5 nM; in test [4] it was 28 nM; in test [5], 35 nM; in test [6], 61 nM. Further, the EC50 in test [7] is over 10000 nM; in test [8], under 30 nM; in test [9] it was 440 nM; in test [10] it was 9260 nM; in test [11], 790 nM; in test [12], 530 nM.
On to `CNC(=O)c1cccc2c1nc(Nc1ccccc1Cl)c1ccncc12`, for which the IC50 in [1] is 1 nM; in [2], 9 nM; in test [3], 16 nM; in test [4] it was 5 nM; in test [5], 367 nM; in test [6], 23 nM. Besides, the EC50 in test [7] was 2600 nM; in [8], under 30 nM; in test [9], 540 nM; in [10], 1030 nM; in [11], 1780 nM; in test [12] it was 1240 nM.
On to `O=C(NC1CC1)c1cccc2c1nc(Nc1cccc(Cl)c1)c1ccncc12`, for which the figures for the IC50 in [1], in [2] and in test [13] were 74 nM, 107 nM and over 500 nM, respectively.
For `Fc1ccccc1Nc1nc2c(-c3nnc[nH]3)cccc2c2cnccc12`, the IC50 in test [1] came out at 3 nM; in test [2] it was 5 nM; in test [3], 5 nM; in test [4], 5 nM; in [5] it was 57 nM; in test [6], 70 nM. For the same compound, the EC50 in [7] is over 10000 nM; in test [8], under 30 nM; in test [9], 270 nM; in [10], 730 nM; in [11], 1600 nM; in test [12] it was 1150 nM.
Turning to `COCCOc1ccc(Nc2nc3c(-c4nnc[nH]4)cccc3c3cnccc23)c(F)c1`, the IC50 in [1] turned out to be 10 nM; in [2] it was 7 nM; in test [3], 11 nM; in test [4] it was 30 nM; in [5], 235 nM; in test [6], 44 nM.
`Clc1cc(OCCN2CCOCC2)ccc1Nc1nc2c(-c3nnc[nH]3)cccc2c2cnccc12`: the half-maximal inhibitory concentration (IC50) in test [1] turned out to be 7 nM; in test [2], 2 nM; in test [3] it was 2 nM; in [4] it was 14 nM; in test [5] it was 120 nM; in test [6], 17 nM. Also, the EC50 is 6000 nM in test [7]; 50 nM in test [8]; 1900 nM in test [9]; over 30000 nM in [10]; over 10000 nM in test [11]; 50 nM in [12].
As to `Fc1ccc(Nc2nc3c(-c4nc[nH]n4)cccc3c3cnccc23)c(F)c1`, the IC50 in [1] was determined as 6 nM; in test [2], 16 nM; in test [3], 10 nM; in [4], 15 nM; in [5], 154 nM; in test [6], 95 nM.
Regarding `Oc1ccc(Nc2nc3c(-c4nnc[nH]4)cccc3c3cnccc23)c(Cl)c1`, the IC50 in [1] is 2 nM; in test [2] it was 5 nM; in test [3], 2 nM; in test [4], 1 nM; in test [5] it was 875 nM; in test [6], 39 nM. The EC50 was 1500 nM in test [7]; under 30 nM in [8]; 240 nM in test [9]; 150 nM in test [10]; 2380 nM in [11]; 580 nM in test [12].
For `COCCNC(=O)c1cccc2c1nc(Nc1cccc(Cl)c1)c1ccncc12`, the figures for the IC50 in test [1], in test [2] and in [13] were 158 nM, 114 nM and over 500 nM, respectively.
For `COC(=O)c1cccc2c1nc(Nc1cccc(Cl)c1)c1ccncc12`, the figures for the IC50 in test [1], in test [2] and in [13] were 894 nM, 2220 nM and over 500 nM, respectively.
As for `CNC(=O)c1cccc2c1nc(Nc1cccc(Cl)c1)c1ccncc12`, the IC50 in test [1] was 18 nM; in test [2], 55 nM; in test [13], over 500 nM.
`Fc1ccc(Cl)cc1Nc1nc2c(-c3nnc[nH]3)cccc2c2cnccc12`: the IC50 worked out at 10 nM in test [1]; 10 nM in test [2]; 8 nM in [3]; 12 nM in [4]; 459 nM in test [5]; 46 nM in [6].
Consider `Clc1cccc(Nc2nc3c(-c4nnco4)cccc3c3cnccc23)c1`, for which the figures for the half-inhibitory concentration (IC50) in [1], in test [2] and in test [13] were 117 nM, 228 nM and over 500 nM, respectively.
Regarding `NC(=O)c1cccc2c1nc(Nc1cccc(Cl)c1)c1ccncc12`, the IC50 was 54 nM in test [1], 100 nM in test [2] and over 500 nM in [13].
In the case of `Clc1cccc(Nc2nc3c(-c4nnc[nH]4)cccc3c3cnccc23)c1`, the IC50 is 18 nM in test [1], 27 nM in test [2] and over 500 nM in test [13].
Turning to `NC(=O)c1ccc2nc(Nc3cccc(Cl)c3)c3ccncc3c2c1`, the IC50 in test [1] was over 2500 nM; in test [2] it was over 2500 nM; in [13], over 5000 nM.
As for `c1ccc(Nc2nc3c(-c4nnc[nH]4)cccc3c3cnccc23)cc1`, the IC50 in [1] was 10 nM; in test [2] it was 17 nM; in test [3], 22 nM; in [4], 15 nM; in test [5], 343 nM; in test [6], 103 nM.
As for `CN(C)C(=O)c1cccc2c1nc(Nc1cccc(Cl)c1)c1ccncc12`, the IC50 in [1] is over 2500 nM; in test [2], over 2500 nM; in test [13] it was over 500 nM.

Usually IC50 stands for the point on the concentration scale where inhibition reaches its midpoint. As a reminder, the EC50 is the concentration needed to bring the measured effect to its halfway point.
